How the values were obtained:
[1] = prior art U.S. Pat. No. 5,880,117; humans; cited from earlier work
in vivo = details: delivered sublingually or transmucosally
Procedure: 7-methoxyflavone is an aromatase inhibitor. Aromatase inhibitors work by inhibiting the action of the enzyme aromatase, which converts androgens into estrogens by a process called aromatization. 7-methoxyflavone is a compound having poor bioavailability of about 5% when ingested. According to an embodiment of the present invention, from about 5 mg to 50 mg, and preferably from about 20 mg to 30 mg of 7-methoxyflavone may be included in the formulations and dosage forms of the present invention, when delivered sublingually or transmucosally. […] According to an embodiment, the 7-methoxyflavone may be from a plant extract. 7-methoxyflavone has been found in Meliaceae and Rutaceae plants. According to an embodiment, the 7-methoxyflavone may therefore be from an extract containing at least 90% 7-methoxyflavone, standardized. Preferably, extract contains at least […] 7-methoxyflavone, standardized.
According to an embodiment of the present invention, from about 5 mg to 50 mg, and preferably from about 20 mg to 30 mg of 7,8-benzoflavone may be included in the formulations and dosage forms of the present invention, when delivered sublingually or transmucosally. According to an embodiment, the half-life of 7,8-benzoflavone is about 1-2 h when delivered sublingually or transmucosally.

[2] = in vivo; cited from earlier work

SMILES: C[C@]12CC[C@H]3[C@@H](CCC4=C[C@@H](O)CC[C@@]43C)[C@@H]1CC[C@@H]2O [4-androstene-3β, 17β-diol]
- time of concentration peak after administration [1]: ≤ 90 min

SMILES: O=c1cc(-c2ccccc2)oc2c1ccc1ccccc12 [7,8-benzoflavone, 2-phenyl-benzo(h)chromen-4-one]
- half-life (in vivo): 1 to 2 h

SMILES: COc1ccc2c(=O)cc(-c3ccccc3)oc2c1 [7-methoxyflavone]
- half-life (in vivo): 8 to 12 h
- bioavailability [2]: about 5%
